pIC50: −log10 of the molar value.
Target: Tyrosine-protein phosphatase non-receptor type 7 (Homo sapiens) (UniProt P35236)
Assay: inhibition of hematopoietic tyrosine phosphatase HePTP – biochemical, set 2, SAR follow-up (AID 449736)
Conditions: recombinant HePTP phosphatase activity

Chain of Tyrosine-protein phosphatase non-receptor type 7 (Homo sapiens) (P35236 whole entry, looked up): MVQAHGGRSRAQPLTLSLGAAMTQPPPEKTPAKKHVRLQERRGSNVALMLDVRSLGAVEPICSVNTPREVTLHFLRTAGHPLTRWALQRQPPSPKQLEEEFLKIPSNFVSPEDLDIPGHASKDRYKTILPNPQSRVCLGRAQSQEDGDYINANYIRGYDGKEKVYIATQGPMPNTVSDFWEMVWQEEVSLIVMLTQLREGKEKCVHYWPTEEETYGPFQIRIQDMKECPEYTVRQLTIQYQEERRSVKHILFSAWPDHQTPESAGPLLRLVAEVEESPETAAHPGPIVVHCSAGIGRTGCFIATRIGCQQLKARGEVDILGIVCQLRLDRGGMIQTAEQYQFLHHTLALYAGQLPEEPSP

COc1cc(/C=C2\SC(=O)N(CC(=O)Nc3cccc(C)c3)C2=O)cc(Cl)c1OCC(=O)O
pIC50: 5.44
